{"source": "patent US20150017667A1", "about": "“MEANS AND METHODS FOR ASSESSING LIVER DISORDERS” (BASF SE, priority 2012, published 2015)", "key": {"male rats": {"tested_on": "male rats", "assay": "28-day repeated dose oral toxicity study (OECD 407) with GC-MS/LC-MS plasma metabolite profiling, male rats", "assay_type": "in vivo, rat", "conditions": "plasma", "excerpt": "Drinking water was also offered ad libitum.\nThe samples were centrifuged for generation of plasma."}, "female rats": {"tested_on": "female rats", "assay": "28-day repeated dose oral toxicity study (OECD 407) with GC-MS/LC-MS plasma metabolite profiling, female rats", "experimental": "A group of each 5 male and female rats was dosed once daily with the indicated compounds (see Table 5, below for compounds, applied doses and administeration details) over 28 days.\nEach dose group in the studies consisted of five rats per sex. Additional groups of each 5 male and female animals served as controls. Before starting the treatment period, animals, which were 62-64 days old when supplied, were acclimatized to the housing and environmental conditions for 7 days. All animals of the animal population were kept under the same constant temperature (20-24±3° C.) and the same constant humidity (30-70%). The animals of the animal population were fed ad libitum. The food to be used was essentially free of chemical or microbial contaminants. Drinking water was also offered ad libitum. Accordingly, the water was free of chemical and microbial contaminants as laid down in the European Drinking Water Directive 98/83/EG. The illumination period was 12 hours light followed by 12 hours darkness (12 hours light, from 6:00 to 18:00, and 12 hours darkness, from 18:00 to 6:00).\nIn the morning of day 7, 14, and 28, blood was taken from the retroorbital venous plexus from fasted anaesthetized animals. From each animal, 1 ml of blood was collected with EDTA as anticoagulant. The samples were centrifuged for generation of plasma. All plasma samples were covered with a N2 atmosphere and then stored at −80° C. until analysis.\nFor mass spectrometry-based metabolite profiling analyses plasma samples were extracted and a polar and a non-polar (lipid) fraction was obtained. For GC-MS analysis, the non-polar fraction was treated with methanol under acidic conditions to yield the fatty acid methyl esters. Both fractions were further derivatised with O-methyl-hydroxyamine hydrochloride and pyridine to convert Oxogroups to O-methyloximes and subsequently with a silylating agent before analysis. In LC-MS analysis, both fractions were reconstituted in appropriate solvent mixtures. HPLC was performed by gradient elution on reversed phase separation columns.\nFollowing comprehensive analytical validation steps, the data for each analyte were normalized against data from pool samples. These samples were run in parallel through the whole process to account for process variability. The significance of treatment group values specific for sex, treatment duration and metabolite was determined by comparing means of the treated groups to the means of the respective untreated control groups using WELCH-test and quantified with treatment ratios versus control and p-values."}}, "note": "Marks after values point to notes of the source that are not given here.", "data": [{"smiles": "Cc1cccc(C)c1N(Cn1cccn1)C(=O)CCl", "note": "[Metazachlor, N-(2,6-dimethylphenyl)-N-(pyrazol-1-ylmethyl)chloroacetamid]", "values": [{"measurement": "4-Hydroxyphenylpyruvate, ratio versus control", "setting": "male rats; day 7", "result": "2.23*"}, {"measurement": "Glycerol-3-phosphate, polar fraction, ratio versus control", "setting": "male rats; day 7", "result": 1.04}, {"measurement": "Phosphatidylcholine (C16:1,C18:2), ratio versus control", "setting": "male rats; day 7", "result": "1.29*"}, {"measurement": "Phosphatidylcholine (C18:0,C18:1), ratio versus control", "setting": "male rats; day 7", "result": "1.56*"}, {"measurement": "Phosphatidylcholine (C18:0,C18:2), ratio versus control", "setting": "male rats; day 7", "result": "1.4*"}, {"measurement": "Phytosphingosine, ratio versus control", "setting": "male rats; day 7", "result": "2.08*"}, {"measurement": "Lysophosphatidylcholine (C18:1), ratio versus control", "setting": "male rats; day 7 (Table 2)", "result": "1.1*"}, {"measurement": "Phosphatidylcholine (C16:0,C20:5), ratio versus control", "setting": "male rats; day 7 (Table 2)", "result": 1}, {"measurement": "alpha-Tocopherol, ratio versus control", "setting": "male rats; day 7 (Table 2)", "result": "1.8*"}, {"measurement": "4-Hydroxyphenylpyruvate, ratio versus control", "setting": "male rats; day 14", "result": "2.59*"}, {"measurement": "Glycerol-3-phosphate, polar fraction, ratio versus control", "setting": "male rats; day 14", "result": "1.63*"}, {"measurement": "Phosphatidylcholine (C16:1,C18:2), ratio versus control", "setting": "male rats; day 14", "result": "2.11*"}, {"measurement": "Phosphatidylcholine (C18:0,C18:1), ratio versus control", "setting": "male rats; day 14", "result": "2.37*"}, {"measurement": "Phosphatidylcholine (C18:0,C18:2), ratio versus control", "setting": "male rats; day 14", "result": "1.55*"}, {"measurement": "Phytosphingosine, ratio versus control", "setting": "male rats; day 14", "result": "2.86*"}, {"measurement": "Lysophosphatidylcholine (C18:1), ratio versus control", "setting": "male rats; day 14 (Table 2)", "result": "1.49*"}, {"measurement": "Phosphatidylcholine (C16:0,C20:5), ratio versus control", "setting": "male rats; day 14 (Table 2)", "result": "1.47*"}, {"measurement": "alpha-Tocopherol, ratio versus control", "setting": "male rats; day 14 (Table 2)", "result": "1.3*"}, {"measurement": "4-Hydroxyphenylpyruvate, ratio versus control", "setting": "male rats; day 28", "result": "3.26*"}, {"measurement": "Glycerol-3-phosphate, polar fraction, ratio versus control", "setting": "male rats; day 28", "result": "1.52*"}, {"measurement": "Phosphatidylcholine (C16:1,C18:2), ratio versus control", "setting": "male rats; day 28", "result": "2.32*"}, {"measurement": "Phosphatidylcholine (C18:0,C18:1), ratio versus control", "setting": "male rats; day 28", "result": "2.06*"}, {"measurement": "Phosphatidylcholine (C18:0,C18:2), ratio versus control", "setting": "male rats; day 28", "result": "1.51*"}, {"measurement": "Phytosphingosine, ratio versus control", "setting": "male rats; day 28", "result": "3.2*"}, {"measurement": "Lysophosphatidylcholine (C18:1), ratio versus control", "setting": "male rats; day 28 (Table 2)", "result": "1.33*"}, {"measurement": "Phosphatidylcholine (C16:0,C20:5), ratio versus control", "setting": "male rats; day 28 (Table 2)", "result": "1.67*"}, {"measurement": "alpha-Tocopherol, ratio versus control", "setting": "male rats; day 28 (Table 2)", "result": "1.49*"}, {"measurement": "3-O-Methylsphingosine (d18:1), ratio versus control", "setting": "female rats; day 7", "result": "5.2*"}, {"measurement": "5-O-Methylsphingosine (d18:1), ratio versus control", "setting": "female rats; day 7", "result": "5.11*"}, {"measurement": "14-Methylhexadecanoic acid, ratio versus control", "setting": "female rats; day 7", "result": "1.18*"}, {"measurement": "Behenic acid (C22:0), ratio versus control", "setting": "female rats; day 7", "result": "2.8*"}, {"measurement": "Cholesterol, ratio versus control", "setting": "female rats; day 7", "result": "2.52*"}, {"measurement": "Coenzyme Q9, ratio versus control", "setting": "female rats; day 7", "result": "2.3*"}, {"measurement": "DAG (C18:1,C18:2), ratio versus control", "setting": "female rats; day 7", "result": "1.52*"}, {"measurement": "Eicosanoic acid (C20:0), ratio versus control", "setting": "female rats; day 7", "result": "2.17*"}, {"measurement": "Glucose, ratio versus control", "setting": "female rats; day 7", "result": "1.4*"}, {"measurement": "Glycerol phosphate, lipid fraction, ratio versus control", "setting": "female rats; day 7", "result": "2.41*"}, {"measurement": "Glycerol, lipid fraction, ratio versus control", "setting": "female rats; day 7", "result": "1.89*"}, {"measurement": "Glycerol-3-phosphate, polar fraction, ratio versus control", "setting": "female rats; day 7", "result": "1.61*"}, {"measurement": "Heptadecanoic acid (C17:0), ratio versus control", "setting": "female rats; day 7", "result": "1.53*"}, {"measurement": "Linoleic acid (C18:cis[9,12]2), ratio versus control", "setting": "female rats; day 7", "result": "2.33*"}, {"measurement": "Nervonic acid (C24:cis[15]1), ratio versus control", "setting": "female rats; day 7", "result": "4.5*"}, {"measurement": "Palmitic acid (C16:0), ratio versus control", "setting": "female rats; day 7", "result": "1.96*"}, {"measurement": "Phosphatidylcholine (C16:0,C20:5), ratio versus control", "setting": "female rats; day 7", "result": "1.18*"}, {"measurement": "TAG (C16:0,C18:1,C18:3), ratio versus control", "setting": "female rats; day 7", "result": "2.84*"}, {"measurement": "TAG (C16:0,C18:2), ratio versus control", "setting": "female rats; day 7", "result": "2.65*"}, {"measurement": "TAG (C18:1,C18:2), ratio versus control", "setting": "female rats; day 7", "result": "2.65*"}, {"measurement": "TAG (C18:2,C18:2), ratio versus control", "setting": "female rats; day 7", "result": "2.42*"}, {"measurement": "TAG (C18:2,C18:3), ratio versus control", "setting": "female rats; day 7", "result": "2.42*"}, {"measurement": "TAG No 01, ratio versus control", "setting": "female rats; day 7", "result": "1.87*"}, {"measurement": "TAG No 05, ratio versus control", "setting": "female rats; day 7", "result": "2.27*"}, {"measurement": "TAG No 07, ratio versus control", "setting": "female rats; day 7", "result": 1.97}, {"measurement": "dihomo-gamma-Linolenic acid (C20:cis[8,11,14]3), ratio versus control", "setting": "female rats; day 7", "result": "2.69*"}, {"measurement": "erythro-Sphingosine, ratio versus control", "setting": "female rats; day 7", "result": "4.06*"}, {"measurement": "3-O-Methylsphingosine (d18:1), ratio versus control", "setting": "female rats; day 14", "result": "7.58*"}, {"measurement": "5-O-Methylsphingosine (d18:1), ratio versus control", "setting": "female rats; day 14", "result": "7.74*"}, {"measurement": "14-Methylhexadecanoic acid, ratio versus control", "setting": "female rats; day 14", "result": "1.17*"}, {"measurement": "Behenic acid (C22:0), ratio versus control", "setting": "female rats; day 14", "result": "4.3*"}, {"measurement": "Cholesterol, ratio versus control", "setting": "female rats; day 14", "result": "2.96*"}, {"measurement": "Coenzyme Q9, ratio versus control", "setting": "female rats; day 14", "result": "2.09*"}, {"measurement": "DAG (C18:1,C18:2), ratio versus control", "setting": "female rats; day 14", "result": "1.92*"}, {"measurement": "Eicosanoic acid (C20:0), ratio versus control", "setting": "female rats; day 14", "result": "3.19*"}, {"measurement": "Glucose, ratio versus control", "setting": "female rats; day 14", "result": "1.17*"}, {"measurement": "Glycerol phosphate, lipid fraction, ratio versus control", "setting": "female rats; day 14", "result": "3.43*"}, {"measurement": "Glycerol, lipid fraction, ratio versus control", "setting": "female rats; day 14", "result": "2.34*"}, {"measurement": "Glycerol-3-phosphate, polar fraction, ratio versus control", "setting": "female rats; day 14", "result": "1.72*"}, {"measurement": "Heptadecanoic acid (C17:0), ratio versus control", "setting": "female rats; day 14", "result": "1.98*"}, {"measurement": "Linoleic acid (C18:cis[9,12]2), ratio versus control", "setting": "female rats; day 14", "result": "3.2*"}, {"measurement": "Nervonic acid (C24:cis[15]1), ratio versus control", "setting": "female rats; day 14", "result": "5.92*"}, {"measurement": "Palmitic acid (C16:0), ratio versus control", "setting": "female rats; day 14", "result": "2.83*"}, {"measurement": "Phosphatidylcholine (C16:0,C20:5), ratio versus control", "setting": "female rats; day 14", "result": "1.46*"}, {"measurement": "TAG (C16:0,C18:1,C18:3), ratio versus control", "setting": "female rats; day 14", "result": "3.67*"}, {"measurement": "TAG (C16:0,C18:2), ratio versus control", "setting": "female rats; day 14", "result": "3.69*"}, {"measurement": "TAG (C18:1,C18:2), ratio versus control", "setting": "female rats; day 14", "result": "2.74*"}, {"measurement": "TAG (C18:2,C18:2), ratio versus control", "setting": "female rats; day 14", "result": "2.51*"}, {"measurement": "TAG (C18:2,C18:3), ratio versus control", "setting": "female rats; day 14", "result": "2.89*"}, {"measurement": "TAG No 01, ratio versus control", "setting": "female rats; day 14", "result": "1.99*"}, {"measurement": "TAG No 05, ratio versus control", "setting": "female rats; day 14", "result": "4.68*"}, {"measurement": "TAG No 07, ratio versus control", "setting": "female rats; day 14", "result": "3.87*"}, {"measurement": "dihomo-gamma-Linolenic acid (C20:cis[8,11,14]3), ratio versus control", "setting": "female rats; day 14", "result": "4.76*"}, {"measurement": "erythro-Sphingosine, ratio versus control", "setting": "female rats; day 14", "result": "5.79*"}, {"measurement": "3-O-Methylsphingosine (d18:1), ratio versus control", "setting": "female rats; day 28", "result": "5.44*"}, {"measurement": "5-O-Methylsphingosine (d18:1), ratio versus control", "setting": "female rats; day 28", "result": "5.42*"}, {"measurement": "14-Methylhexadecanoic acid, ratio versus control", "setting": "female rats; day 28", "result": "1.19*"}, {"measurement": "Behenic acid (C22:0), ratio versus control", "setting": "female rats; day 28", "result": "3.4*"}, {"measurement": "Cholesterol, ratio versus control", "setting": "female rats; day 28", "result": "2.72*"}, {"measurement": "Coenzyme Q9, ratio versus control", "setting": "female rats; day 28", "result": "1.75*"}, {"measurement": "DAG (C18:1,C18:2), ratio versus control", "setting": "female rats; day 28", "result": "2.94*"}, {"measurement": "Eicosanoic acid (C20:0), ratio versus control", "setting": "female rats; day 28", "result": "2.49*"}, {"measurement": "Glucose, ratio versus control", "setting": "female rats; day 28", "result": 0.99}, {"measurement": "Glycerol phosphate, lipid fraction, ratio versus control", "setting": "female rats; day 28", "result": "2.93*"}, {"measurement": "Glycerol, lipid fraction, ratio versus control", "setting": "female rats; day 28", "result": "3.13*"}, {"measurement": "Glycerol-3-phosphate, polar fraction, ratio versus control", "setting": "female rats; day 28", "result": "1.55*"}, {"measurement": "Heptadecanoic acid (C17:0), ratio versus control", "setting": "female rats; day 28", "result": "2.08*"}, {"measurement": "Linoleic acid (C18:cis[9,12]2), ratio versus control", "setting": "female rats; day 28", "result": "3.43*"}, {"measurement": "Nervonic acid (C24:cis[15]1), ratio versus control", "setting": "female rats; day 28", "result": "5.03*"}, {"measurement": "Palmitic acid (C16:0), ratio versus control", "setting": "female rats; day 28", "result": "2.86*"}, {"measurement": "Phosphatidylcholine (C16:0,C20:5), ratio versus control", "setting": "female rats; day 28", "result": "1.26*"}, {"measurement": "TAG (C16:0,C18:1,C18:3), ratio versus control", "setting": "female rats; day 28", "result": "5.22*"}, {"measurement": "TAG (C16:0,C18:2), ratio versus control", "setting": "female rats; day 28", "result": "3.73*"}, {"measurement": "TAG (C18:1,C18:2), ratio versus control", "setting": "female rats; day 28", "result": "3.09*"}, {"measurement": "TAG (C18:2,C18:2), ratio versus control", "setting": "female rats; day 28", "result": "4.34*"}, {"measurement": "TAG (C18:2,C18:3), ratio versus control", "setting": "female rats; day 28", "result": "4.18*"}, {"measurement": "TAG No 01, ratio versus control", "setting": "female rats; day 28", "result": "3.16*"}, {"measurement": "TAG No 05, ratio versus control", "setting": "female rats; day 28", "result": "5.27*"}, {"measurement": "TAG No 07, ratio versus control", "setting": "female rats; day 28", "result": "4.1*"}, {"measurement": "dihomo-gamma-Linolenic acid (C20:cis[8,11,14]3), ratio versus control", "setting": "female rats; day 28", "result": "4.48*"}, {"measurement": "erythro-Sphingosine, ratio versus control", "setting": "female rats; day 28", "result": "4.33*"}]}]}
